Activity calls are given as the source filed them.
How the values were obtained:
Genome polyprotein = Genome polyprotein (dengue virus type 2, UniProt P29990); assay: Dengue-2 NS5 methyltransferase inhibitors, primary screen, biochemical, confirmation dose response (AID 588689); type: functional
Large T antigen = Large T antigen (Simian virus 40, UniProt P03070); type: functional, Betapolyomavirus macacae;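 further: Confirmatory-stage PubChem screen for compounds that inhibit SV40 T antigen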
cells [1] = type: functional, cell-based
cells [2] = type: functional, cell-based; remark: listed apart in the source
[3] = NIH-3T3 fibroblast cytotoxicity, dose response, cytotoxicity control, cell-based, fluorescence, Alamar Blue, secondary assay (AID 2327); type: functional;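 further: NIH-3T3 mouse fibroblasts cultured with fluconazole at 8 µg/mL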
Nonstructural protein 1 = Nonstructural protein 1 (Influenza A virus, UniProt Q194T2); type: functional, Influenza A virus (A/California/07/2009(H1N1))
Chain of Nonstructural protein 1 (Q194T2 whole entry): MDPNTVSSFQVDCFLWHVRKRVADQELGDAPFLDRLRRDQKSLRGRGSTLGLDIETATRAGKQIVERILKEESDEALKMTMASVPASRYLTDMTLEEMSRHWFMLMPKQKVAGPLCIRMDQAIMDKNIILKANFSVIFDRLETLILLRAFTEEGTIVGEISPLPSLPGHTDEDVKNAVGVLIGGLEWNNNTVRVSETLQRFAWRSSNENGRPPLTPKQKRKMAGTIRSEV

[4] = C. albicans growth with fluconazole, confirmation, fluorescence, retest (AID 2467); type: functional, cell-based
[5] = target: T1, RNA-binding protein pos-1 (Caenorhabditis elegans, UniProt G5EF15); assay: inhibitors of POS-1/mex-3 RNA binding, dose response, biochemical, fluorescence polarization (AID 1964);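 further: purified POS-1 fused to maltose binding protein made in E. coli; potency of compounds blocking POS-1 binding to fluorescent RNA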
T1 sequence (G5EF15 whole entry): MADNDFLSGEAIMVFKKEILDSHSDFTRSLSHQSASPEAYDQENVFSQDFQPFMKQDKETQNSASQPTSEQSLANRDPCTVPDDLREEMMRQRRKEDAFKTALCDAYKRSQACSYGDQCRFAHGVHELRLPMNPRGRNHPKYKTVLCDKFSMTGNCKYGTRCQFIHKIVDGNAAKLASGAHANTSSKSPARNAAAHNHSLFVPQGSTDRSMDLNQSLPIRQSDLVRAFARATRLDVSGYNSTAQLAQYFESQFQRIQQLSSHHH

[6] = target: T2, Zinc finger protein mex-5 (Caenorhabditis elegans, UniProt Q9XUB2); assay: MEX-5/TCR-2 RNA interaction inhibitors, dose response, biochemical, C. elegans, fluorescence polarization (AID 1960)
T2 sequence (Q9XUB2 whole entry): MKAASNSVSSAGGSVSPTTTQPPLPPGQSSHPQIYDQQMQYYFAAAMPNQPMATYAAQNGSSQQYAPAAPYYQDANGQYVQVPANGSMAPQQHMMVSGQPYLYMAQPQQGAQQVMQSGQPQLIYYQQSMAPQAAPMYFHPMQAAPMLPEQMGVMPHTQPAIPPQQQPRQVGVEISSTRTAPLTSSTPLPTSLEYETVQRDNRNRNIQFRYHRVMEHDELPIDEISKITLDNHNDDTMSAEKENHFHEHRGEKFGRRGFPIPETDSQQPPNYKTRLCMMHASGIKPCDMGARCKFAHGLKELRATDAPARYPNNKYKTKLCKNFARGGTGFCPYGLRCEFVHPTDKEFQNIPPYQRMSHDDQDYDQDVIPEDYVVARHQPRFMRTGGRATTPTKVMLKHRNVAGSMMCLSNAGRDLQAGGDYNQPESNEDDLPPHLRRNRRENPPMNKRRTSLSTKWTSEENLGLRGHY

Cytochrome P450 3A4 = Cytochrome P450 3A4 (Homo sapiens, UniProt P08684);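 further: CYP3A4 tested as one member of a cytochrome P450 panel screen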
Chain of Cytochrome P450 3A4 (P08684 whole entry): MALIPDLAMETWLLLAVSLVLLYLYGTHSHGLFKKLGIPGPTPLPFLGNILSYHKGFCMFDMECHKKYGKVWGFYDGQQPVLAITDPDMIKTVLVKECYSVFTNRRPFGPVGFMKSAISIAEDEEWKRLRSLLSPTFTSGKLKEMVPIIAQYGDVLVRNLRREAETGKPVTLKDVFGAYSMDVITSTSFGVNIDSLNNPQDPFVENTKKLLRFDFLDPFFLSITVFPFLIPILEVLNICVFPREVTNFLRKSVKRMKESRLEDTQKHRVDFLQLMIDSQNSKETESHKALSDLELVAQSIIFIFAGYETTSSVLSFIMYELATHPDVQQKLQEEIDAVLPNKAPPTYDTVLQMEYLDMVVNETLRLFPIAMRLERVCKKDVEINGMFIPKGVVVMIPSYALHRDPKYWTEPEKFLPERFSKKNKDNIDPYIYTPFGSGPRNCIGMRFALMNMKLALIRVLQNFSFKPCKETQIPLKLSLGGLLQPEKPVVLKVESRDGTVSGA

Cytochrome P450 2C9 = Cytochrome P450 2C9 (Homo sapiens, UniProt P11712)
Chain of Cytochrome P450 2C9 (P11712 whole entry): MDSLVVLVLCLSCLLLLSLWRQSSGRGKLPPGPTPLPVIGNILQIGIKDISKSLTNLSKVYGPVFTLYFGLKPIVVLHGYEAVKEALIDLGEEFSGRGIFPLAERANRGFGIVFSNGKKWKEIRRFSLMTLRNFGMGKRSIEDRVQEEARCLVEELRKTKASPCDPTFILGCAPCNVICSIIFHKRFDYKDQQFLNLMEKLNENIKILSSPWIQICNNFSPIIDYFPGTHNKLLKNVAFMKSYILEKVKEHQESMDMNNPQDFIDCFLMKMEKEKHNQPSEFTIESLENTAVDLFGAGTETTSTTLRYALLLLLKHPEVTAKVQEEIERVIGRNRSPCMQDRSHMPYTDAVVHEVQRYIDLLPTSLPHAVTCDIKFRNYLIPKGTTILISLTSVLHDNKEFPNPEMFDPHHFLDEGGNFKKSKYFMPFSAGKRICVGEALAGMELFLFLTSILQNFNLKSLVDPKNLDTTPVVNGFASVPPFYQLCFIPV

cells [7] = type: functional
BJ [8] = assay: cytotoxicity toward BJ-TERT-LT-ST fibroblasts, dose response, cell-based, RAS-independent, luminescence (AID 1935); type: functional; settings: Homo sapiens;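 further: BJ fibroblasts immortalized with TERT plus LT and ST oncogenes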
BJ [9] = assay: cells; type: functional, cell-based; settings: Homo sapiens
[10] = target: Luciferin 4-monooxygenase (Photinus pyralis, UniProt P08659); assay: firefly luciferase enzyme inhibitors, dose response, biochemical, luminescence (AID 1891)
Chain of Luciferin 4-monooxygenase (P08659 whole entry): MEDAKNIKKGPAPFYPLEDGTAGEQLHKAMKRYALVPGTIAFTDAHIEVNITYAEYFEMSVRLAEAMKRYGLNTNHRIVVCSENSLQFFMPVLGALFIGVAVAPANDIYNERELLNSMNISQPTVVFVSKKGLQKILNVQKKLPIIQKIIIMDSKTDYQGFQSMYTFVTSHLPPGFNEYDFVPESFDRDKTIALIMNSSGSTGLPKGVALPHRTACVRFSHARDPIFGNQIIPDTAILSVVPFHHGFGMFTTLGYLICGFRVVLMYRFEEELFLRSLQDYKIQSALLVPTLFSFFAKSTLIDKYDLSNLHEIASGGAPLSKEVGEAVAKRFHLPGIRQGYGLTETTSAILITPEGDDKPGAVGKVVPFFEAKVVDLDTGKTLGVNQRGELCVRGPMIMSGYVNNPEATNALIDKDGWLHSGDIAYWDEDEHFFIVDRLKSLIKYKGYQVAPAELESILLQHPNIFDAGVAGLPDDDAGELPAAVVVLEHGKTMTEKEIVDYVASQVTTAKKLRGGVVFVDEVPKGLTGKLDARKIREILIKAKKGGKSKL

BJ [11] = assay: cytotoxicity toward BJ-TERT fibroblasts, dose response, cell-based, RAS-independent, luminescence (AID 1933); type: functional; settings: Homo sapiens
[12] = cytotoxicity toward DRD oncogenic fibroblasts, dose response, cell-based, non-viral oncogenic, luminescence (AID 1934); type: functional; settings: Homo sapiens
[13] = Luminescence Cell-Based Dose Confirmation HTS to Identify Inhibitors of Platelet Dense Granule Release. [Related pubchem assays: 1663 (Primary HTS), 1678 (Summary of Project)]; type: functional
[14] = target: FAD-linked sulfhydryl oxidase ALR (Homo sapiens, UniProt P55789); assay: inhibitors of human ALR sulfhydryl oxidase, dose response, biochemical, H2O2 detection, luminescence, cherry-pick (AID 493248)
Chain of FAD-linked sulfhydryl oxidase ALR (P55789 whole entry): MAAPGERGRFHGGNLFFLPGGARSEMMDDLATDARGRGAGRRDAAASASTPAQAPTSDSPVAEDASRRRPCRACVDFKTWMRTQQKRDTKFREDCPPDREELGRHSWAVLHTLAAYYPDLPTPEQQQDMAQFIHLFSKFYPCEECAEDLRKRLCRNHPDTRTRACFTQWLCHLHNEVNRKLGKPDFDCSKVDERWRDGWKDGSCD

[15] = target: T3, Rac GTPase-activating protein 1 (Homo sapiens, UniProt Q9H0H5); assay: MgcRacGAP GTPase-activating activity inhibitors, confirmation, biochemical, ADP Hunter fluorescence, primary and confirmatory (AID 624330); type: functional
T3 sequence (Q9H0H5 whole entry): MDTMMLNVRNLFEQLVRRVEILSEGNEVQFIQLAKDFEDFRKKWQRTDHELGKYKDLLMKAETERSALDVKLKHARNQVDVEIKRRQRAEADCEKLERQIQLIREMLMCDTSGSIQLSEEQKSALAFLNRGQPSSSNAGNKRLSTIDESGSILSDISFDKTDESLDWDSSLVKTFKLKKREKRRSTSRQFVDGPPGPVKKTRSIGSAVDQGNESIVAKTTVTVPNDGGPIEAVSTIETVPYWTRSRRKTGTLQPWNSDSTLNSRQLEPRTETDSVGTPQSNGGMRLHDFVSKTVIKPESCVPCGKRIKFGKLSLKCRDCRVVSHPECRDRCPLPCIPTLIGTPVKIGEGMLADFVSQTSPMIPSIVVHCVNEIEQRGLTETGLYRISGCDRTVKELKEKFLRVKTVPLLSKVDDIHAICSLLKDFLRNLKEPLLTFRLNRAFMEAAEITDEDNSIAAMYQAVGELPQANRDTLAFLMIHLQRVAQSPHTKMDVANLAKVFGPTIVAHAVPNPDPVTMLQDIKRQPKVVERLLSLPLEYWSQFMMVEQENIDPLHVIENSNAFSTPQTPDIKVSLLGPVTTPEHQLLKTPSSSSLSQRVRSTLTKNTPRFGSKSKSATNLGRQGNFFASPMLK

[16] = target: T4, Corticotropin-releasing factor receptor 2/Corticotropin-releasing factor-binding protein (Homo sapiens, UniProt P24387+Q13324); assay: activators of CRF receptor 2 with binding protein – uHTS hits, confirmation (AID 602473); type: functional; settings: read-out: EC50_Mean
T4 sequence (Q13324 whole entry): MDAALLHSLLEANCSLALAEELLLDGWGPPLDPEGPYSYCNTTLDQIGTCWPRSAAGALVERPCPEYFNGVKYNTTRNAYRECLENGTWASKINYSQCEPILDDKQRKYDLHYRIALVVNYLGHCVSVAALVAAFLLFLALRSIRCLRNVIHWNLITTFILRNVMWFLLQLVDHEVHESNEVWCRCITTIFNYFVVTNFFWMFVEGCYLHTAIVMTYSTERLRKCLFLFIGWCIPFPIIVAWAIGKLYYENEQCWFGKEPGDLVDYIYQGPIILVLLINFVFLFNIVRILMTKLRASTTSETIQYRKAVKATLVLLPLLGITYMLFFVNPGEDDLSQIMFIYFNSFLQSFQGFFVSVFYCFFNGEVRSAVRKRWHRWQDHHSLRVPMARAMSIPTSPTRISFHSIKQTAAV
T4 sequence (P24387 whole entry): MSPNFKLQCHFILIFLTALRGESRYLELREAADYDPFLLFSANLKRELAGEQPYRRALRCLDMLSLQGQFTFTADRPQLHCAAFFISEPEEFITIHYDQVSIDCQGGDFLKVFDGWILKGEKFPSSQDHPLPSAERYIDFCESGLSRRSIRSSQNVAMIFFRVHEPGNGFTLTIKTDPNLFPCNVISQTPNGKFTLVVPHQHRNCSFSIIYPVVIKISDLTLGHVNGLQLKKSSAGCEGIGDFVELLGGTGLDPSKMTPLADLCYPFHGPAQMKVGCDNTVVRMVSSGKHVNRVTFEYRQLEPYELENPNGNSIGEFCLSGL

Cytochrome P450 2C19 = Cytochrome P450 2C19 (Homo sapiens, UniProt P33261); assay: Cytochrome panel assay with activity outcomes. Panel member name: p450-cyp2c19 Compounds with AC50 equal or less than 10 uM are considered active; type: functional
Chain of Cytochrome P450 2C19 (P33261 whole entry): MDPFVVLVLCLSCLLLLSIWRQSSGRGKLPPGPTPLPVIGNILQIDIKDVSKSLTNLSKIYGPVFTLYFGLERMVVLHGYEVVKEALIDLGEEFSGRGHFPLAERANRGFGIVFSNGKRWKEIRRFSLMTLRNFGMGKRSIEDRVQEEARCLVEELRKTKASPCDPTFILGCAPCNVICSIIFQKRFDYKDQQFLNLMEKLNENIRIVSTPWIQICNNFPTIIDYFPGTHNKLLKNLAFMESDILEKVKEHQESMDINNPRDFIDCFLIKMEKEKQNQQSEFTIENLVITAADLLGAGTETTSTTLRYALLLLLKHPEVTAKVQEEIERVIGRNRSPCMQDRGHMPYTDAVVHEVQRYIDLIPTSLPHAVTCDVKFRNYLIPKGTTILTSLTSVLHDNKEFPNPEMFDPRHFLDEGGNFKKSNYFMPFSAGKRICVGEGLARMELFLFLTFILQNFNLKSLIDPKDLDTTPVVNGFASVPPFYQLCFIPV

[17] = Shn3 3'UTR reporter inhibitors, dose response, cell-based, Clone20 osteoblasts, firefly luciferase, cherry-picked (AID 624132); type: functional;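 further: firefly luciferase luminescence from reporter carrying the Shn3 3'UTR in osteoblasts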
[18] = target: T5, Heat shock factor protein 1 (Mus musculus, UniProt P38532); assay: HSF1 potentiators in luciferase reporter cells, confirmation, cell-based, NIH3T3, luminescence, dose retest (AID 435004); type: functional;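 further: stress induced by proteasome inhibitor MG132 added 30 min after compound; luciferase reporter driven by HSF1 response element in NIH3T3 cells; actives raise luminescence as potentiators of the MG132 stress response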
T5 sequence (P38532 whole entry): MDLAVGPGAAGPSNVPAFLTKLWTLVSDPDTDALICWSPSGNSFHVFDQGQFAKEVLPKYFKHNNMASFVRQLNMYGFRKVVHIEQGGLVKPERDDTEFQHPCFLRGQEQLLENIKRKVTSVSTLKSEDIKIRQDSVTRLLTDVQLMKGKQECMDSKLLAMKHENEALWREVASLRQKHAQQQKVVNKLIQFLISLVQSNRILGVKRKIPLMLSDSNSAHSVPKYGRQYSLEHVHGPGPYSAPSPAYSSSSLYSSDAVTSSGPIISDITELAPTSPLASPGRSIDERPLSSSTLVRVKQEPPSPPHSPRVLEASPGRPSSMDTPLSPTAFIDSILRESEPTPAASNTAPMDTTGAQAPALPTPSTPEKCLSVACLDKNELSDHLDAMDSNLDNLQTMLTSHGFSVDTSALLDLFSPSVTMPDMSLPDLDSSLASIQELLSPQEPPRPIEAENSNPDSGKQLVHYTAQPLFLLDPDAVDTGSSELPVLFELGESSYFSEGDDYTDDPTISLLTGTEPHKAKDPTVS

Chain of Large T antigen (P03070 whole entry): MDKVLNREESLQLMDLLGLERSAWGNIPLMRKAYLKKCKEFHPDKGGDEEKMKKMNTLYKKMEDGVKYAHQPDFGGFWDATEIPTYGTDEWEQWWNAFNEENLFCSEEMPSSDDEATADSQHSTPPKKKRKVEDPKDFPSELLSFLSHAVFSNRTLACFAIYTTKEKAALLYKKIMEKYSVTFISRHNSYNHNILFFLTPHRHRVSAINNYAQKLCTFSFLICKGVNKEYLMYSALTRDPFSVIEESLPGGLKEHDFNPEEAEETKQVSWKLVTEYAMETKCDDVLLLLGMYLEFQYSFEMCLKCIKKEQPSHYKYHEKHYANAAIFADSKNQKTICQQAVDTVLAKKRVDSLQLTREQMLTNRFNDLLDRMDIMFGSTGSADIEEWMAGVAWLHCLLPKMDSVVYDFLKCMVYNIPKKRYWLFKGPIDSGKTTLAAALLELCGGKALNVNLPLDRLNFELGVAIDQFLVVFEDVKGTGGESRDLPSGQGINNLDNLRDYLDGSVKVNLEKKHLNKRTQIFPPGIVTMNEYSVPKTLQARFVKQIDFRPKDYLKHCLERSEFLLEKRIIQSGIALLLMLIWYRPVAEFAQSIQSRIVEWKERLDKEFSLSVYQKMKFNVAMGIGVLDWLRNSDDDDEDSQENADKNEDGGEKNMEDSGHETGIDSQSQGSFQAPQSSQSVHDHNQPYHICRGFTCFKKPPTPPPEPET
Chain of Genome polyprotein (P29990 2492-3391 limits assumed): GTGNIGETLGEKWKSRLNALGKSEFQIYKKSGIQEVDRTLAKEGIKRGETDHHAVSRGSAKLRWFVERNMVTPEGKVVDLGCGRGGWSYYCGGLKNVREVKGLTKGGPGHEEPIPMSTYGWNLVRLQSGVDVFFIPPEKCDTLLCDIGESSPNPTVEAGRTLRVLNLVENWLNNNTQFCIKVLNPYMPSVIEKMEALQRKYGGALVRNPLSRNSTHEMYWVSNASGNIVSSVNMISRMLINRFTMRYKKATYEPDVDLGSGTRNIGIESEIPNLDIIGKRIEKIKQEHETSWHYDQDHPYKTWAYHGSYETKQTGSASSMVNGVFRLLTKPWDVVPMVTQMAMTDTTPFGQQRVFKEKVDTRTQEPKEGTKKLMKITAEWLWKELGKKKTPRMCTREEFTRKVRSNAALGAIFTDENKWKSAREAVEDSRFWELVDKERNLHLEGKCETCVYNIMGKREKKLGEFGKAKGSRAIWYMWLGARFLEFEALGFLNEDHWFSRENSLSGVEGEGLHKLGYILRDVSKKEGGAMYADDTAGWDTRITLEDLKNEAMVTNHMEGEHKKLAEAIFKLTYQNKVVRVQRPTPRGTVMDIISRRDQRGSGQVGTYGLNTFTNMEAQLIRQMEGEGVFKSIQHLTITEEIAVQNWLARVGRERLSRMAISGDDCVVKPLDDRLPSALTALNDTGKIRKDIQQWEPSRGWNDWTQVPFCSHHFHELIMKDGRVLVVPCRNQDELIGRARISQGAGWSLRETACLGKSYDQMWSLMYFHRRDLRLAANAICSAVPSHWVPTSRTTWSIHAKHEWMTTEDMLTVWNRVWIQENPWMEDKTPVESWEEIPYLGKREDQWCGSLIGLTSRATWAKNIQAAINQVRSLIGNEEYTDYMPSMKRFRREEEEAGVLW

CSc1nc(O)c(C(c2ccc(O)cc2)c2c(O)nc(SC)nc2O)c(O)n1
IC50 (Genome polyprotein): 46.7 µM (active)

CCOC(=O)c1cc(-c2ccc(N)cc2)sc1N
IC50 (Large T antigen): 9.87 µM (active)

Cc1ccnc(NC(c2cccnc2)c2ccc3cccnc3c2O)c1 (stereo unspecified)
EC50 (cells [1]): > 350 µM (not active) | EC50 (cells [2]): 200 µM (active) | EC50 [3]: 46.7 µM (active) | IC50 (Nonstructural protein 1): 8.52 µM (active) | EC50 [4]: > 38 µM (not active)

C=CCn1c(=S)[nH]c2nc3c(cc2c1=O)COC(C)(C)C3
EC50 [5]: > 300 µM (not active) | EC50 [6]: > 300 µM (not active)

CSc1nncc(/C(C)=N\Nc2ccccc2)n1
AC50 (Cytochrome P450 3A4): 2.51 µM (inconclusive) | EC50 [5]: 41.3 µM (active) | EC50 [6]: > 300 µM (not active)

COc1cc(C2C(C#N)=C(N)OC3=C2C(=O)CCC3)cc(OC)c1OC(=O)N1CCOCC1 (stereo unspecified)
AC50 (Cytochrome P450 3A4): 25.1 µM (inconclusive) | EC50 [5]: > 300 µM (not active) | EC50 [6]: > 300 µM (not active) | AC50 (Cytochrome P450 2C9): 22.4 µM (inconclusive)

Cc1cc(/C=C(\C#N)C(=O)Nc2ccccc2)c(C)n1-c1ccc(C(=O)O)cc1
EC50 [5]: > 300 µM (not active) | EC50 [6]: > 300 µM (not active)

C/C(=N\NC(=O)c1ccc([N+](=O)[O-])c(C)c1)c1ccccc1Cl
IC50 (cells [7]): 42.2 µM (active)

COc1ccc(C2(O)CCN(CCCCOc3ccccc3)CC2)cc1
IC50 (cells [7]): 32.8 µM (active)

Fc1cccc(/C=N/Nc2nccnc2Cl)c1
EC50 (BJ [8]): > 75 µM (inconclusive) | EC50 (cells [1]): 7.47 µM (active) | EC50 (cells [2]): > 350 µM (not active) | EC50 (BJ [9]): 11 µM (active) | EC50 [10]: 3.81 µM (active) | EC50 (BJ [11]): 11.9 µM (active) | EC50 [12]: 11.3 µM (active) | EC50 [13]: 2.26 µM (active)

CCn1nc(C)c(/C=C2\CCCC3=C2OC(N)=C(C#N)C3c2c(C)nn(CC)c2C)c1C (stereo unspecified)
EC50 [5]: 36 µM (active) | EC50 [6]: 51.8 µM (active)

COc1cc(/C=N\NC(=O)CC(=O)NCCc2ccccc2)ccc1O
AC50 [14]: 1.7 µM (active) | IC50 (Large T antigen): 7.57 µM (active) | IC50 [15]: 27.4 µM (active)

Cc1ccccc1NC(=O)/C(C#N)=C/c1ccc(-c2ccc(Cl)c(C(=O)O)c2)o1
EC50 [5]: > 300 µM (not active) | EC50 [6]: > 300 µM (not active)

CCc1ccc(NC(=O)N(CCN2CCOCC2)Cc2ccc3c(c2)CCCN3CC)cc1
IC50 (Nonstructural protein 1): 40.6 µM (active)

CCOc1ccc(-c2nn(-c3ccccc3)cc2/C=C2\SC(=S)N(C3CCS(=O)(=O)C3)C2=O)cc1 (stereo unspecified)
EC50 [16]: 13.1 µM (active) | EC50 [5]: > 300 µM (not active) | EC50 [6]: > 300 µM (not active)

CCn1c(-c2ccco2)nc2ccccc21
IC50 (cells [7]): > 50 µM (active)

O=C(CN1CCCCC1)Nc1nnc(-c2ccc([N+](=O)[O-])cc2)s1
IC50 (cells [7]): 29.9 µM (active) | AC50 (Cytochrome P450 2C9): 17.8 µM (inconclusive) | AC50 (Cytochrome P450 2C19): inconclusive

N=C1/C(=C\c2ccc(O)cc2)C(=O)N=C2SC(CC(=O)N3CCCCC3)=NN12
IC50 (Large T antigen): 14.2 µM (active)

COC(=O)[C@@]12CCCN1[C@H](c1ccc(-c3ccc(OC)cc3)cc1)[C@@H]1C(=O)N(C)C(=O)[C@@H]12
AC50 [17]: 38.9 µM (active)

O=C(COc1ccc(Cl)cc1)Nc1ccc(Cl)cn1
IC50 (cells [7]): 30.3 µM (active)

COC(=O)/C(C#N)=C/c1c(N2CCN(Cc3ccc4c(c3)OCO4)CC2)nc2c(C)cccn2c1=O
EC50 (cells [1]): > 350 µM (not active) | EC50 (cells [2]): > 350 µM (not active)

CN(C1CCCC1)C1CCN(C(S)=Nc2cc(F)cc(F)c2)CC1
EC50 (cells [1]): > 350 µM (not active) | EC50 (cells [2]): > 350 µM (not active)

COc1cccc(C2C3=C(N=c4s/c(=C\c5ccccc5O)c(=O)n42)c2ccccc2CC3)c1OC (stereo unspecified)
EC50 (cells [1]): > 350 µM (not active) | EC50 (cells [2]): > 350 µM (not active)

CN=C(S)Nc1ccc(Nc2ccccc2)cc1
IC50 (Large T antigen): 12.3 µM (active) | IC50 [15]: 64.6 µM (active)

CCOC(=O)C(C)Oc1cc(Cl)c(C=O)cc1OC (stereo unspecified)
EC50 [18]: > 260 µM (inactive) | IC50 (cells [7]): 24.4 µM (active)

Cc1c(C)n(Cc2ccccc2)c2ncnc(NN)c12
IC50 (Large T antigen): > 100 µM (active)

COc1cc(SC)ccc1C(=O)NCCc1ccccc1
EC50 (cells [1]): 18.9 µM (active) | EC50 (cells [2]): > 350 µM (not active)

O=C(COC(=O)COc1ccc(Nc2ccccc2)cc1)NCc1ccco1
IC50 (cells [7]): 4.72 µM (active) | IC50 [15]: 77.4 µM (active)
